How the values were obtained:
Format in all cases: cell-based
[1] = system: Escherichia coli (NCTC 10418); test: Photobactericidal efficacy, minimum bactericidal concentration; details: NCTC10418, 10^6 cfu/ml, 1 hour at 37° C. with photosensitiser, illuminated twenty minutes, LEDs 660 nm, 6.2 J cm^-2, table does not say light or dark, read-out: minimum concentration needed to achieve the antibacterial activity (minimum bactericidal concentration), E. coli
Procedure: (§1) The photobactericidal efficacies of the compounds of examples 2a to 2d in addition to that of the known photosensitiser methylene blue were measured against both Gram positive Staphylococcus aureus (NCTC 6571), Enterococcus faecalis (NCIMB 13280) and Propionibacterium acnes (NCTC 737) and Gram negative Escherichia coli (NCTC 10418), Proteus mirabilis (NCIMB 5887) and a clinical strain of Pseudomonas aeruginosa bacteria. Propionibacterium acnes was grown in reinforced clostridial medium. All other strains were grown in Mueller-Hinton Broth and then diluted to a concentration of 10^6 colony-forming units/ml. Aliquots of the strains were then incubated for 1 hour at 37° C. in microtitre trays with various concentrations of photosensitiser in doubling dilutions from 100 μM, with zero photosensitiser concentrations in each case for control purposes. The trays were then either illuminated for twenty minutes using an array of light-emitting diodes (660 nm) giving a light dose of 6.2 J cm^−2 or alternatively foil-covered to provide dark controls. From each well showing an inhibition of growth of the micro-organism, 1 μl was sub-cultured on nutrient agar, using the Miles-Misra method, and incubated for 18 hours at 37° C. The minimum bactericidal concentrations were then determined as the lowest concentration for each photosensitiser giving no bacterial growth.

[2] = system: Proteus mirabilis (NCIMB 5887); test: as above; details: 10^6 cfu/ml, 1 hour at 37° C. with photosensitiser, illuminated twenty minutes, LEDs 660 nm, 6.2 J cm^-2; table does not say light or dark
Procedure: as §1

[3] = system: clinical strain of Pseudomonas aeruginosa; test: as above; details: 10^6 cfu/ml, 1 hour at 37° C. with photosensitiser, illuminated twenty minutes, LEDs 660 nm, 6.2 J cm^-2, table does not say light or dark
Procedure: as §1

[4] = system: Enterococcus faecalis (NCIMB 13280); test: as above; details: 10^6 cfu/ml, 1 hour at 37° C. with photosensitiser, illuminated twenty minutes, LEDs 660 nm, 6.2 J cm^-2; table does not say light or dark
Procedure: as §1

[5] = system: Staphylococcus aureus (NCTC 6571); test: as above; details: NCTC6571, 10^6 cfu/ml, 1 hour at 37° C. with photosensitiser, illuminated twenty minutes, LEDs 660 nm, 6.2 J cm^-2, table does not say light or dark, read-out: minimum concentration needed to achieve the antibacterial activity (minimum bactericidal concentration), S. aureus
Procedure: as §1

[6] = system: Propionibacterium acnes (NCTC 737); test: as above; details: Cutibacterium acnes, NCTC737; reinforced clostridial medium, 1 hour at 37° C. with photosensitiser, illuminated twenty minutes, LEDs 660 nm, 6.2 J cm^-2; table does not say light or dark; read-out: minimum concentration needed to achieve the antibacterial activity (minimum bactericidal concentration), Prop. acnes
Procedure: as §1

[7] = system: Candida albicans (NCPF 8179); test: Antifungal screening, minimum concentration; details: Sabouraud broth and agar, carried out similarly: illuminated twenty minutes, LEDs 660 nm, 6.2 J cm^-2; table does not say light or dark
Procedure: as §1
Antifungal screening was carried out similarly against the yeast Candida albicans (NCPF 8179), using Sabouraud broth and agar.

Structure (SMILES)	MBC [1]	minimum concentration needed to achieve the antibacterial activity (minimum bactericidal concentration), Proteus mirabilis [2]	minimum concentration needed to achieve the antibacterial activity (minimum bactericidal concentration), Pseudomonas Aeruginosa [3]	minimum concentration needed to achieve the antibacterial activity (minimum bactericidal concentration), Enterococcus facecalis [4]	MBC [5]	MBC [6]	minimum concentration needed to achieve the antifungal activity, Candida albicans [7]
CCc1cc2nc3ccc(N(C)C)cc3[s+]c2cc1N [Compound 2a]	1.47 µM	5.50 µM	3.13 µM	1.35 µM	3.13 µM	0.78 µM	3.13 µmol/L
CN(C)c1ccc2nc3cc(-c4ccccc4)c(N)cc3[s+]c2c1 [Compound 2d, 3-Amino-7-(dimethylamino)-2-phenylphenothiazinium hydrogensulphate]	3.13 µM	–	–	–	3.13 µM	–	0.78 µmol/L
CCCc1cc2nc3ccc(N(C)C)cc3[s+]c2cc1N [Compound 2b, 3-Amino-7-(dimethylamino)-2-n-propylphenothiazinium hydrogensulphate]	1.32 µM	5.32 µM	0.78 µM	0.33 µM	3.13 µM	0.78 µM	0.78 µmol/L
CN(C)c1ccc2nc3cc(C(C)(C)C)c(N)cc3[s+]c2c1 [Compound 2c, 3-Amino-2-tert-butyl-7-(dimethylamino)phenothiazinium hydrogensulphate]	3.13 µM	–	0.39 µM	–	3.13 µM	0.78 µM	3.13 µmol/L
Cc1cc2c(cc1N)=[SH]c1cc(N(C)C)ccc1N=2 [toluidine blue, Toluidine blue]	–	14.71 µM	7.36 µM	7.36 µM	–	–	12.5 µmol/L
